# Measured values taken from publication PMC7407272, “Induction of Lysosome Membrane Permeabilization as a Therapeutic Strategy to Target Pancreatic Cancer Stem Cells” (Cancers, 2020).
# Legend:
# [1] = molecular target: T1, TYRO3 (Homo sapiens, UniProt Q06418); test: KINOMEscan; assay type: binding; conditions: read-out: % Ctrl
# T1 construct: purchased DiscoveRx KINOMEscan
# [2] = molecular target: T2, MYLK2 (Homo sapiens, UniProt Q9H1R3); test: KINOMEscan; assay type: binding; conditions: read-out: % Ctrl
# T2 construct: purchased DiscoveRx KINOMEscan
# [3] = molecular target: T3, TAOK3 (Homo sapiens, UniProt Q9H2K8); test: KINOMEscan; assay type: binding; conditions: read-out: % Ctrl
# T3 construct: purchased DiscoveRx KINOMEscan
# [4] = molecular target: T4, CLK2 (Homo sapiens, UniProt P49760); test: KINOMEscan; assay type: binding; conditions: read-out: % Ctrl
# T4 construct: purchased DiscoveRx KINOMEscan
# [5] = molecular target: T5, RPS6KA5(KD1-N-t.) (Homo sapiens, UniProt O75582); test: KINOMEscan; assay type: binding; conditions: read-out: % Ctrl
# T5 construct: RPS6KA5(KD1-N-t.); purchased DiscoveRx KINOMEscan
# [6] = molecular target: T6, DYRK1A (Homo sapiens, UniProt Q13627); test: KINOMEscan; assay type: binding; conditions: read-out: % Ctrl
# T6 construct: purchased DiscoveRx KINOMEscan
# [7] = molecular target: T7, PKAC-beta (Homo sapiens, UniProt P22694); test: KINOMEscan; assay type: binding; conditions: read-out: % Ctrl
# T7 construct: purchased DiscoveRx KINOMEscan
# [8] = molecular target: T8, RPS6KA5(KD2-C-t.) (Homo sapiens, UniProt O75582); test: KINOMEscan; assay type: binding; conditions: read-out: % Ctrl
# T8 construct: RPS6KA5(KD2-C-t.); purchased DiscoveRx KINOMEscan
# [9] = molecular target: T9, GCN2(KD2,S808G) (Homo sapiens, UniProt Q9P2K8, S808G); test: KINOMEscan; assay type: binding; conditions: read-out: % Ctrl
# T9 construct: purchased DiscoveRx KINOMEscan
# [10] = molecular target: T10, AMPK-alpha2 (Homo sapiens, UniProt P54646); test: KINOMEscan; assay type: binding; conditions: read-out: % Ctrl
# T10 construct: purchased DiscoveRx KINOMEscan
# [11] = molecular target: T11, TNK1 (Homo sapiens, UniProt Q13470); test: KINOMEscan; assay type: binding; conditions: read-out: % Ctrl
# T11 construct: purchased DiscoveRx KINOMEscan
# [12] = molecular target: T12, MLK2 (Homo sapiens, UniProt Q02779); test: KINOMEscan; assay type: binding; conditions: read-out: % Ctrl
# T12 construct: purchased DiscoveRx KINOMEscan
# [13] = molecular target: T13, FGFR3 (Homo sapiens, UniProt P22607); test: KINOMEscan; assay type: binding; conditions: read-out: % Ctrl
# T13 construct: purchased DiscoveRx KINOMEscan
# [14] = molecular target: T14, CDKL5 (Homo sapiens, UniProt O76039); test: KINOMEscan; assay type: binding; conditions: read-out: % Ctrl
# T14 construct: purchased DiscoveRx KINOMEscan
# [15] = tested on: FLT3(ITD,D835V); test: KINOMEscan; assay type: binding, human; conditions: 1 µM
# [16] = molecular target: T15, PIK3CA(I800L) (Homo sapiens, UniProt P42336, I800L); test: KINOMEscan; assay type: binding; conditions: read-out: % Ctrl
# T15 construct: purchased DiscoveRx KINOMEscan
# [17] = molecular target: T16, IRAK1 (Homo sapiens, UniProt P51617); test: KINOMEscan; assay type: binding; conditions: read-out: % Ctrl
# T16 construct: purchased DiscoveRx KINOMEscan
# [18] = tested on: FLT3(ITD,F691L); test: KINOMEscan; assay type: binding, human; conditions: 1 µM
# [19] = molecular target: T17, PIP5K2B (Homo sapiens, UniProt P78356); test: KINOMEscan; assay type: binding; conditions: read-out: % Ctrl
# T17 construct: purchased DiscoveRx KINOMEscan
# [20] = molecular target: T18, CLK3 (Homo sapiens, UniProt P49761); test: KINOMEscan; assay type: binding; conditions: read-out: % Ctrl
# T18 construct: purchased DiscoveRx KINOMEscan
# [21] = molecular target: T19, TLK2 (Homo sapiens, UniProt Q86UE8); test: KINOMEscan; assay type: binding; conditions: read-out: % Ctrl
# T19 construct: purchased DiscoveRx KINOMEscan
# [22] = molecular target: T20, CSNK1E (Homo sapiens, UniProt P49674); test: KINOMEscan; assay type: binding; conditions: read-out: % Ctrl
# T20 construct: purchased DiscoveRx KINOMEscan
# [23] = molecular target: T21, FYN (Homo sapiens, UniProt P06241); test: KINOMEscan; assay type: binding; conditions: read-out: % Ctrl
# T21 construct: purchased DiscoveRx KINOMEscan
# [24] = molecular target: T22, MAP3K1 (Homo sapiens, UniProt Q13233); test: KINOMEscan; assay type: binding; conditions: read-out: % Ctrl
# T22 construct: purchased DiscoveRx KINOMEscan
# [25] = molecular target: T23, EGFR(G719S) (Homo sapiens, UniProt P00533, G719S); test: KINOMEscan; assay type: binding; conditions: read-out: % Ctrl
# T23 construct: purchased DiscoveRx KINOMEscan
# [26] = molecular target: T24, MEK4 (Homo sapiens, UniProt P45985); test: KINOMEscan; assay type: binding; conditions: read-out: % Ctrl
# T24 construct: purchased DiscoveRx KINOMEscan
# [27] = molecular target: T25, ACVR2A (Homo sapiens, UniProt P27037); test: KINOMEscan; assay type: binding; conditions: read-out: % Ctrl
# T25 construct: purchased DiscoveRx KINOMEscan
# [28] = molecular target: T26, JAK1(JH1D.-cat.) (Homo sapiens, UniProt P23458); test: KINOMEscan; assay type: binding; conditions: read-out: % Ctrl
# T26 construct: JAK1(JH1D.-cat.); purchased DiscoveRx KINOMEscan
# [29] = molecular target: T27, HUNK (Homo sapiens, UniProt P57058); test: KINOMEscan; assay type: binding; conditions: read-out: % Ctrl
# T27 construct: purchased DiscoveRx KINOMEscan
# [30] = molecular target: T28, EPHB6 (Homo sapiens, UniProt O15197); test: KINOMEscan; assay type: binding; conditions: read-out: % Ctrl
# T28 construct: purchased DiscoveRx KINOMEscan
# [31] = molecular target: T29, CAMKK1 (Homo sapiens, UniProt Q8N5S9); test: KINOMEscan; assay type: binding; conditions: read-out: % Ctrl
# T29 construct: purchased DiscoveRx KINOMEscan
# [32] = molecular target: T30, PRKCQ (Homo sapiens, UniProt Q04759); test: KINOMEscan; assay type: binding; conditions: read-out: % Ctrl
# T30 construct: purchased DiscoveRx KINOMEscan
# [33] = molecular target: T31, DMPK2 (Homo sapiens, UniProt Q6DT37); test: KINOMEscan; assay type: binding; conditions: read-out: % Ctrl
# T31 construct: purchased DiscoveRx KINOMEscan
# [34] = tested on: implanted invasive glioblastoma spheroids or gliobastomas PDXs; parameters: method as in PMID 28270132; conditions: 100 mg/kg; cited from earlier work
# T23 sequence (P00533 25-1210 G719S): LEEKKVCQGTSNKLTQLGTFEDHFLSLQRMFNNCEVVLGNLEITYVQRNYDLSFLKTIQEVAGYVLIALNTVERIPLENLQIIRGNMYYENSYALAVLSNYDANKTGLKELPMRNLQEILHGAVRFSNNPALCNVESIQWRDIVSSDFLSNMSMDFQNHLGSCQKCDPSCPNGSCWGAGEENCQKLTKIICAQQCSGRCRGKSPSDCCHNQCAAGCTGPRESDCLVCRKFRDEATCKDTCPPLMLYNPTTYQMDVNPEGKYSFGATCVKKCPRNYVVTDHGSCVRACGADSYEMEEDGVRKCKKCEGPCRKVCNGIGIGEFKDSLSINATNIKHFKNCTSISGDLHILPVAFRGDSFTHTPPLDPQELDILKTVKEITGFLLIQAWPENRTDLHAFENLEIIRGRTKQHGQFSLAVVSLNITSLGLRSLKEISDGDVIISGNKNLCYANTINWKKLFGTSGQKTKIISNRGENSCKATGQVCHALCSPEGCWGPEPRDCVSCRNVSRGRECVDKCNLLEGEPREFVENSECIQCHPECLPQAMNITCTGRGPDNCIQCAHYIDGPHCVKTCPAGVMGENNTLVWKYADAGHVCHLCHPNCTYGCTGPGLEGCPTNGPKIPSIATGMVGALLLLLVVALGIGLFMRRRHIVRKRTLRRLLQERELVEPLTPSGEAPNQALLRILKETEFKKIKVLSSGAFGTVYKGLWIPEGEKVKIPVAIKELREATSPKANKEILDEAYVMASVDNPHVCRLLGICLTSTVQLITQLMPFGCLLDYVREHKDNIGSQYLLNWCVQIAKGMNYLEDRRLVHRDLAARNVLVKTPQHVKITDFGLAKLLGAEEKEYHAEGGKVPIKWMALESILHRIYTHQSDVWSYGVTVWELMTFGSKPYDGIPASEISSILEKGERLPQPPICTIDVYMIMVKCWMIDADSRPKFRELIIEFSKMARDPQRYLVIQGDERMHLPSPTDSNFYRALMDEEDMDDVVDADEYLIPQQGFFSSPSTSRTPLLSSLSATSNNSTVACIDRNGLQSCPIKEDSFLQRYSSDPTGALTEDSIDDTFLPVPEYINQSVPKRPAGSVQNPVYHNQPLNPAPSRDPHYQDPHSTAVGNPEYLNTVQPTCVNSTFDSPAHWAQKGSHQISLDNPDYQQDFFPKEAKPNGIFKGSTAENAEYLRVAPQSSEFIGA
# T12 sequence (Q02779 whole entry): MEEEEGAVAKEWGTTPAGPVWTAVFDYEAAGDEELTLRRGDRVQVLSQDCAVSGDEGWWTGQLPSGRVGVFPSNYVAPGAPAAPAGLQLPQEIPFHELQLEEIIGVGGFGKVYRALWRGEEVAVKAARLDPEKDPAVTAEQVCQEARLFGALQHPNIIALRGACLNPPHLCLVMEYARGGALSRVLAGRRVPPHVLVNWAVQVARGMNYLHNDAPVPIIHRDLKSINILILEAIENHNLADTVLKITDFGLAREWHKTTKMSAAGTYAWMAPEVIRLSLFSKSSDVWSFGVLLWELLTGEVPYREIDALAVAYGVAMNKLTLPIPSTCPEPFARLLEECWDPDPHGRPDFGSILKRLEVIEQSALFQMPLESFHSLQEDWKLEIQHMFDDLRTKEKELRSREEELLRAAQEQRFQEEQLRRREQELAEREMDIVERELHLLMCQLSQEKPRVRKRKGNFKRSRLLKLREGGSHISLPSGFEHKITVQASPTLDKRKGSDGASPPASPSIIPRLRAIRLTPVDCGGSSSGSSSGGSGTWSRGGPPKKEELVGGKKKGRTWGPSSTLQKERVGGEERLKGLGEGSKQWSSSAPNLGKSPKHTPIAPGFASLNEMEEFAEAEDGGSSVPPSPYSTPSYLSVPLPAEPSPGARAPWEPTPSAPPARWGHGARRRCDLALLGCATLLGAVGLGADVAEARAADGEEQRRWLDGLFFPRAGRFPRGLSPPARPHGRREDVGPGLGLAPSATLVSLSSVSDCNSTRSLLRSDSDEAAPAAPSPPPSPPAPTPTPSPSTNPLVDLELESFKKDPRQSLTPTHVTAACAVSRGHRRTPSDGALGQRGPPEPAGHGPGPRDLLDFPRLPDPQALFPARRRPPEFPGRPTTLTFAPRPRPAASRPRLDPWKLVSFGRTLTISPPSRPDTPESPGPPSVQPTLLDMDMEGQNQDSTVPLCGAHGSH
# T15 sequence (P42336 whole entry I800L): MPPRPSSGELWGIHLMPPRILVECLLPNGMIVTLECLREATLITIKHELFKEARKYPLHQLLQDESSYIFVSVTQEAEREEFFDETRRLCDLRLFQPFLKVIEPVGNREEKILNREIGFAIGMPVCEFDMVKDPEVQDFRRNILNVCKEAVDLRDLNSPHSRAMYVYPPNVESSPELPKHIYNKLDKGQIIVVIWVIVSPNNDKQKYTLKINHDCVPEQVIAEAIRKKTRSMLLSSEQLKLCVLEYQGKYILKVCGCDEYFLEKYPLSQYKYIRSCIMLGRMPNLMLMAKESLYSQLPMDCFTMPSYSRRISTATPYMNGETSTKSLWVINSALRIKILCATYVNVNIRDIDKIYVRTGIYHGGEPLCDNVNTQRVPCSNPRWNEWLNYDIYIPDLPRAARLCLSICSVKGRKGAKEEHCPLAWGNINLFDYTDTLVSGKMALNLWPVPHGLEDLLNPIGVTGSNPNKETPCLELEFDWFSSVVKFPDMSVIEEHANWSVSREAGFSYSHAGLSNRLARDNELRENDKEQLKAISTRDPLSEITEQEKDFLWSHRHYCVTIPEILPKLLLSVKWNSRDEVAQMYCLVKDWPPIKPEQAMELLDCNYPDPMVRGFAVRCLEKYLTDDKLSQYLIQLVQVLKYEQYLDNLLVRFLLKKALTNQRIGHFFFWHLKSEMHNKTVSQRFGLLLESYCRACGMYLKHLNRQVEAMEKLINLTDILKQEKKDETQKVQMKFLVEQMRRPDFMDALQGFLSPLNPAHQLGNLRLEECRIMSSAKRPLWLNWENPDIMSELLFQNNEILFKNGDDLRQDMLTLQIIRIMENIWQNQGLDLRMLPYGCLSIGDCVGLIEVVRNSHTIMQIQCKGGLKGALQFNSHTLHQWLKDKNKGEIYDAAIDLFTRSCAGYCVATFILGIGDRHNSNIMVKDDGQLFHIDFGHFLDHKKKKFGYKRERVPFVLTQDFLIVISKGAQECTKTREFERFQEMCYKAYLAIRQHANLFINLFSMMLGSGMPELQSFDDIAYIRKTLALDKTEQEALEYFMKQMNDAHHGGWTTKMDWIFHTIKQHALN
# T26 sequence (P23458 875-1154 limits assumed): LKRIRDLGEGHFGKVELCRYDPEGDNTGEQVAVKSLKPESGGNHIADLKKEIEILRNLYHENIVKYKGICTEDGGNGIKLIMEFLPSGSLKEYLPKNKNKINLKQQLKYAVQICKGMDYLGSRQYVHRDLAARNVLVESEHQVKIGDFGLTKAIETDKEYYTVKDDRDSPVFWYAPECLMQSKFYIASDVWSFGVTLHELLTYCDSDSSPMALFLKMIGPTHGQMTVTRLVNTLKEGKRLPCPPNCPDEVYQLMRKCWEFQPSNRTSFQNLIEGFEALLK
# T29 sequence (Q8N5S9 whole entry): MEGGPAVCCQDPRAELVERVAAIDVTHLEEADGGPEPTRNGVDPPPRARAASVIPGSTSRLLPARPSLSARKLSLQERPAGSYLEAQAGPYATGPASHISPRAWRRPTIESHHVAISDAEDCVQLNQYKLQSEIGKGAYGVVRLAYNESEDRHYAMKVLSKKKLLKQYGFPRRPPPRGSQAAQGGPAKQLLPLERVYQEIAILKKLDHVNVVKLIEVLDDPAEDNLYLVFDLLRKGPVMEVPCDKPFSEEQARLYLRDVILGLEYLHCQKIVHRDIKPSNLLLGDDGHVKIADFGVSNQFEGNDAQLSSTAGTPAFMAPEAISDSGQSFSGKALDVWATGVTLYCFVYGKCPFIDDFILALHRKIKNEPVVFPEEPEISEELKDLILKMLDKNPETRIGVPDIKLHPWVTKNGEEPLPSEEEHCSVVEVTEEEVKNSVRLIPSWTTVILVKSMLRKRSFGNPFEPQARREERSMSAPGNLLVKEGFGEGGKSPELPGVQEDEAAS
# T14 sequence (O76039 whole entry): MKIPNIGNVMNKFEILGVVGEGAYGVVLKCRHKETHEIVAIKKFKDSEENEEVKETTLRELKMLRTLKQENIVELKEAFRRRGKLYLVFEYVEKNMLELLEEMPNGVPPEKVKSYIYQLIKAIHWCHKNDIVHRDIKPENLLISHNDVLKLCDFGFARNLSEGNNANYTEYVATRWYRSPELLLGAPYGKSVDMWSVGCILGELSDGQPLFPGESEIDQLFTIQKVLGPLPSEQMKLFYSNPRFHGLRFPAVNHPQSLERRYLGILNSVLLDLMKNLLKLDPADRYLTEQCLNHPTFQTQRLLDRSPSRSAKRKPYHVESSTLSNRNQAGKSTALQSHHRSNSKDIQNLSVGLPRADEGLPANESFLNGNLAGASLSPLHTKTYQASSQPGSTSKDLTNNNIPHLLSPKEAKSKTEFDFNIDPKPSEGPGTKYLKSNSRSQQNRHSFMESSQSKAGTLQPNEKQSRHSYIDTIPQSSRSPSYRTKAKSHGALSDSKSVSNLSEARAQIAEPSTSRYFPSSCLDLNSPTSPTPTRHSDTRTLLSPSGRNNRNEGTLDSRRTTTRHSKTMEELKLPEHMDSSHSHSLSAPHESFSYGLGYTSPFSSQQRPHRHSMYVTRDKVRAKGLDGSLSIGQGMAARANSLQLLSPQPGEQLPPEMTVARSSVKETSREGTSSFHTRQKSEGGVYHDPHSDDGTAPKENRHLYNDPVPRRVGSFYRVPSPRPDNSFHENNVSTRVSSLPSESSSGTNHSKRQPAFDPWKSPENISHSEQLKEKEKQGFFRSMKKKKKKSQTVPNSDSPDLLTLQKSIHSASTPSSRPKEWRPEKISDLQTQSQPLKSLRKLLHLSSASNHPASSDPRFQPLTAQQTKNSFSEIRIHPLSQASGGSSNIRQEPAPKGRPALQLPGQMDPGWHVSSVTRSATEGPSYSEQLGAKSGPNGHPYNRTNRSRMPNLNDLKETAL
compound,measurement,setting,value
CN1CCC(CNc2ccc3ncc(C(=O)Nc4cccc(OC(F)(F)F)c4)n3n2)CC1 [Cpd 2],remaining binding at 1 µM,[1],89%
same,remaining binding at 1 µM,[2],97%
same,remaining binding at 1 µM,[3],99%
same,remaining binding at 1 µM,[4],81%
same,remaining binding at 1 µM,[5],100%
same,remaining binding at 1 µM,[6],100%
same,remaining binding at 1 µM,[7],88%
same,remaining binding at 1 µM,[8],92%
same,remaining binding at 1 µM,[9],73%
same,remaining binding at 1 µM,[10],100%
same,remaining binding at 1 µM,[11],56%
same,remaining binding at 1 µM,[12],100%
same,remaining binding at 1 µM,[13],98%
same,remaining binding at 1 µM,[14],100%
same,% Ctrl,[15],9.1%
same,remaining binding at 1 µM,[16],81%
same,remaining binding at 1 µM,[17],100%
same,% Ctrl,[18],34%
same,remaining binding at 1 µM,[19],95%
same,remaining binding at 1 µM,[20],93%
same,remaining binding at 1 µM,[21],100%
same,remaining binding at 1 µM,[22],95%
same,remaining binding at 1 µM,[23],96%
same,remaining binding at 1 µM,[24],100%
same,remaining binding at 1 µM,[25],100%
same,remaining binding at 1 µM,[26],100%
same,remaining binding at 1 µM,[27],100%
same,remaining binding at 1 µM,[28],100%
same,remaining binding at 1 µM,[29],100%
same,remaining binding at 1 µM,[30],92%
same,remaining binding at 1 µM,[31],94%
same,remaining binding at 1 µM,[32],55%
same,remaining binding at 1 µM,[33],97%
Fc1ccc(-n2cc(CCCCN3CCC4(CC3)OCc3ccccc34)c3ccccc32)cc1 [siramesine],efficacy in vivo,[34],ineffective in vivo
